One may read the IC50 as the concentration at which inhibition is half-maximal.

This note sets out measurements from PMC7901699, “Challenging inflammatory process at molecular, cellular and in vivo levels via some new pyrazolyl thiazolones” (Journal of Enzyme Inhibition and Medicinal Chemistry, 2021).

Entries after “also recorded” stand apart in the source; their conditions may differ.

One data set concerns the target T1, 15-LOX (Glycine max, UniProt P08170).
T1 construct: purchased Cayman chemicals 760700
T1 sequence (P08170 1-839): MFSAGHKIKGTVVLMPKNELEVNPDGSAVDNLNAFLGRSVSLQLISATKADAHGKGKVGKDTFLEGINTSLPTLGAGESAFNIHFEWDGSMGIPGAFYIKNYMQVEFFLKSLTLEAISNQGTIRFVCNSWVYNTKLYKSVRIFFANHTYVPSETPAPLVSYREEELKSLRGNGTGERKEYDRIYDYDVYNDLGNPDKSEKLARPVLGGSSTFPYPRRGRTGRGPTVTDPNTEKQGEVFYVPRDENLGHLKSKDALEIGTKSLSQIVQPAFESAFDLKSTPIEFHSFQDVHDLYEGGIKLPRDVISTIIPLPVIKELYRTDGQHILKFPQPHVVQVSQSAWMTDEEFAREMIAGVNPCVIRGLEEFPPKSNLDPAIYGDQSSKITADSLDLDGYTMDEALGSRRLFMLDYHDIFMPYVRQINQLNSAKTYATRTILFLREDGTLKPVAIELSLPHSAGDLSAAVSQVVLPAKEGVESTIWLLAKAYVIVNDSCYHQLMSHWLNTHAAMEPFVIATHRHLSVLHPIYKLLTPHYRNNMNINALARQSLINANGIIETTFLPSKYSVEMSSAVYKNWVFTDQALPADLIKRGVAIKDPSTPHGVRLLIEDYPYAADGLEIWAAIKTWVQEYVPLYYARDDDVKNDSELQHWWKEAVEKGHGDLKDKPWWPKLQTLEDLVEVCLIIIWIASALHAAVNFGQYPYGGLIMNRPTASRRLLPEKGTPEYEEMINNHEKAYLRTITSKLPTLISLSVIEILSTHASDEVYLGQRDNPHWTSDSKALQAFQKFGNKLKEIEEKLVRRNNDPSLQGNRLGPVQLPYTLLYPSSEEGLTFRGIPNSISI
In words: In vitro 15-LOX inhibition assay (lipoxygenase inhibitor screening kit, Cayman). It counts as biochemical. To be noted: for IC50: mean of three determinations. The method, then: (§1) Both assays were carried out in compliance with the manufacturer’s instructions and in accordance to prior studies[29]^,[33].
(§2) IC50 values (μM) and selectivity indices (SI) were calculated.

The target of a further data set is T2, ovine COX-1 (Ovis aries, UniProt P05979).
T2 construct: purchased Cayman Chemicals Inc. 560131
T2 sequence (P05979 25-600): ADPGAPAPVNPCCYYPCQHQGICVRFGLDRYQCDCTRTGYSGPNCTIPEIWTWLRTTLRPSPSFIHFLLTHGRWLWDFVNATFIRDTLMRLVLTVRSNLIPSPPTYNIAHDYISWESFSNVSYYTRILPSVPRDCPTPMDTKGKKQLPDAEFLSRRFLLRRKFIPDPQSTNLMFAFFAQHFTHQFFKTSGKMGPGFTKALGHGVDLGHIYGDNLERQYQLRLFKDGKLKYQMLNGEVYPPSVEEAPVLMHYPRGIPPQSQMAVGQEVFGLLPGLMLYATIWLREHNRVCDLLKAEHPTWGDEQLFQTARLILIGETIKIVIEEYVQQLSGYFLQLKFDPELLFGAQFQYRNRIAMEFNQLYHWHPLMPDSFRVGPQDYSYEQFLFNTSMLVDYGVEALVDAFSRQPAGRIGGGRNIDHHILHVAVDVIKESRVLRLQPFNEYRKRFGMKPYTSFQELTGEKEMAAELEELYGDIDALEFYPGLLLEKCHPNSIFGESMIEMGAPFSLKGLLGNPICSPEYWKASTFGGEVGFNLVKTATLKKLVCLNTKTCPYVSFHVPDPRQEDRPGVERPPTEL
Briefly: In vitro COX-1 inhibition assay (colorimetric COX inhibitor screening kit, Cayman). It counts as biochemical. To be noted: mean of three determinations. The method, then: as §1, §2

A further data set addresses T3, human recombinant COX-2 (Homo sapiens, UniProt P35354).
T3 construct: purchased Cayman Chemicals Inc. 560131
T3 sequence (P35354 18-604): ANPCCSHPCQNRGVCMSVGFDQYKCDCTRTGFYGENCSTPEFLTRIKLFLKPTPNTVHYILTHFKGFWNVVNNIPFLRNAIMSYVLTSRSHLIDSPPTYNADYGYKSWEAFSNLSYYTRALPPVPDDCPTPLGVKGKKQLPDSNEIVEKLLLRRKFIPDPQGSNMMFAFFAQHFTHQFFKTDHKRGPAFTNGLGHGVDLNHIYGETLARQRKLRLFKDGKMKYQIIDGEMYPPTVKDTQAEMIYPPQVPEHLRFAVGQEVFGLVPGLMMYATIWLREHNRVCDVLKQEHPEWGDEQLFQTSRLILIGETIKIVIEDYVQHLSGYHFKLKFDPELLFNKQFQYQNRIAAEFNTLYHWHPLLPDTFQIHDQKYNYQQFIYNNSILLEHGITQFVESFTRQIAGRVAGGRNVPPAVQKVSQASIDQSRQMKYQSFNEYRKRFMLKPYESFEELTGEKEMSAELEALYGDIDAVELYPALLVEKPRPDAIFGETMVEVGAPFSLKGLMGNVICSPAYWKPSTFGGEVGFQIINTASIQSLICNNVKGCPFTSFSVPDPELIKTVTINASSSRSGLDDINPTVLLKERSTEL
Briefly: In vitro COX-2 inhibition assay (colorimetric COX inhibitor screening kit, Cayman). It counts as biochemical. To be noted: for SI (COX-1/ COX-2): IC50 (COX-1)/IC50 (COX-2); for IC50: mean of three determinations. The method, then:
as §1, §2

The subject of data set [1] is formalin-induced rat paw oedema. Briefly: Formalin-induced paw oedema test (acute inflammation model). It counts as in vivo, Wistar rats. To be noted: oral 5 mg/kg once daily for seven days; oedema 4 h after formalin; vs diclofenac sodium and celecoxib 5 mg/kg. How it is done: A freshly prepared 5% formalin solution (prepared from 37% formaldehyde and saline (Merck, Germany)) was used as a phlogistic agent. Test and reference compounds (5 mg/kg body weight) were dissolved in DMSO and given orally with gastric gavage once per day for seven consecutive days, whereas DMSO was administered to the control group. On the 8th day, the initial paw volume was determined by a Vernier calliper. Then, a subcutaneous injection of 40 μl formalin was introduced into the right hind paw of all groups under light ether anaesthesia. The paw volume was measured 4 h after the formalin injection and the oedema volume was calculated by the difference in paw volume before and 4 h after the formalin injection. The percentage inhibition of oedema (or % protection against inflammation) was calculated for each compound as previously reported[34]^,[35].

In a further data set the test system is rat stomach. In words: Gastric ulcerogenic activity and histopathological examination. To be noted: stomach removed on 8th day of administration, 5 mg/kg oral.
In data set [2] the test system is cotton pellet-induced granuloma. In words: Cotton pellet-induced granuloma assay (chronic inflammation model). To be noted: oral 5 mg/kg daily, pellets excised on 8th day, vs diclofenac sodium and celecoxib.

Procedure for rat stomach: The same compounds were tested for chronic gastric ulcerative symptoms[37]^,[38]. Rat stomach was removed on the 8th day of drug administration. Stomach was opened through the greater curvature, washed and kept in saline. Gross examination was carried out for any signs of haemorrhage, hyperaemia, haemorrhagic erosion or ulcers. Moreover, histopathological inspection was conducted to verify the extent of inflammatory reaction in mucosal layers[28]^,[38].

Regarding `O=C1N=C(N2CCCCC2)S/C1=C\c1cn(-c2ccccc2)nc1-c1ccccc1` [Compound 3, (Z)-5-((1,3-diphenyl-1H-pyrazol-4-yl)methylene)-2-(piperidin-1-yl)thiazol-4(5H)-one], the figures for the half-inhibitory concentration (IC50) against 15-LOX, against ovine COX-1 and at human recombinant COX-2 were 2.54 µM, 7.86 µM and 0.19 µM, respectively. The “SI (COX-1/ COX-2)” value at human recombinant COX-2 came out at 41.
On the same counts, the results for `Cc1ccc(-c2nn(-c3ccccc3)cc2/C=C2\SC(N3CCCCC3)=NC2=O)cc1` [Compound 5, (Z)-5-((1-phenyl-3-(p-tolyl)-1H-pyrazol-4-yl)methylene)-2-(piperidin-1-yl)thiazol-4(5H)-one] are 4.23 µM, 9.23 µM, 0.34 µM and 27.
Turning to `Cc1nn(-c2ccccc2)c(Cl)c1/C=C1\SC(N2CCOCC2)=NC1=O` [Compound 2, (Z)-5-((5-chloro-3-methyl-1-phenyl-1H-pyrazol-4-yl)methylene)-2-morpholinothiazol-4(5H)-one], the concentration for half-maximal inhibition (IC50) turned out to be 2.42 µM against 15-LOX, 8.14 µM on ovine COX-1 and 0.09 µM at human recombinant COX-2. For the same compound, on human recombinant COX-2, the “SI (COX-1/ COX-2)” value worked out at 90. Further, the “Inhibition of formalin-induced rat paw oedema (in words)” value in data set [1] was “as effective as either diclofenac or celecoxib”. Further, the “Gross observation of isolated rat stomachs” value in the data set with rat stomach (5 mg/kg) was “normal texture”. Also, the “Inhibition of cotton pellet granuloma weight (in words)” value in data set [2] (5 mg/kg) is “superior anti-inflammatory activity, when compared to diclofenac and celecoxib; also recorded: increased inhibition of granuloma weight in comparison to both celecoxib and diclofenac”.
At 15-LOX, `Cc1ccc(Cl)c(Nc2ccccc2C(=O)O)c1Cl` [Meclofenamate Na, reference compound] registered a 50% inhibitory concentration (IC50) of 5.64 µM.
On to `Cc1ccc(-c2nn(-c3ccccc3)cc2/C=C2\SC(N3CCOCC3)=NC2=O)cc1` [Compound 6, (Z)-2-morpholino-5-((1-phenyl-3-(p-tolyl)-1H-pyrazol-4-yl)methylene)thiazol-4(5H)-one], for which the IC50 against 15-LOX came to 2.85 µM; on ovine COX-1, 12.5 µM; on human recombinant COX-2, 0.18 µM. For the same compound, the “SI (COX-1/ COX-2)” value at human recombinant COX-2 was 69.
Regarding `Cc1nn(-c2ccccc2)c(Cl)c1/C=C1\SC(N2CCCCC2)=NC1=O` [Compound 1, (Z)-5-((5-chloro-3-methyl-1-phenyl-1H-pyrazol-4-yl)methylene)-2-(piperidin-1-yl)thiazol-4(5H)-one], the IC50 at 15-LOX was 1.96 µM; at ovine COX-1 it was 6.56 µM; on human recombinant COX-2, 0.11 µM. In addition, the “15-LOX inhibition, times the activity of quercetin” value on 15-LOX (relative to quercetin) is 1.7 times. The “SI (COX-1/ COX-2)” value at human recombinant COX-2 turned out to be 59.
With `O=C1N=C(N2CCCCC2)S/C1=C\c1cn(-c2ccccc2)nc1-c1ccc(Br)cc1` [Compound 9, (Z)-5-((3-(4-bromophenyl)-1-phenyl-1H-pyrazol-4-yl)methylene)-2-(piperidin-1-yl)thiazol-4(5H)-one], the IC50 against 15-LOX is 5.64 µM; against ovine COX-1, 14 µM; on human recombinant COX-2, 0.13 µM. For the same compound, on 15-LOX (relative to quercetin), the “15-LOX inhibitory activity as % of the activity of quercetin” value stood at 59%. The “SI (COX-1/ COX-2)” value on human recombinant COX-2 came out at 107. Besides, the “Inhibition of formalin-induced rat paw oedema (in words)” value in data set [1] is “as effective as either diclofenac or celecoxib”. Also, the “Inhibition of cotton pellet granuloma weight (in words)” value in data set [2] is reported as “only superior to celecoxib”.
On to `O=C1N=C(N2CCOCC2)S/C1=C\c1cn(-c2ccccc2)nc1-c1ccc(Br)cc1` [Compound 10, (Z)-5-((3-(4-bromophenyl)-1-phenyl-1H-pyrazol-4-yl)methylene)-2-morpholinothiazol-4(5H)-one], for which the IC50 worked out at 4.52 µM against 15-LOX, 11.3 µM at ovine COX-1 and 0.11 µM at human recombinant COX-2. The “15-LOX inhibitory activity as % of the activity of quercetin” value at 15-LOX (relative to quercetin) amounted to 74%. Further, the “SI (COX-1/ COX-2)” value at human recombinant COX-2 was 103. In addition, in data set [1], the “Inhibition of formalin-induced rat paw oedema (in words)” value was “as effective as either diclofenac or celecoxib”. Besides, in the data set on rat stomach, the “Gross observation of isolated rat stomachs” value is recorded as “variable levels of hyperaemia without gross ulceration”. The “Histopathological examination of stomach gastric layers” value with rat stomach (H&E, 5 mg/kg) was “both edoema and inflammatory changes in stomach mucosal surface”. The “Inhibition of cotton pellet granuloma weight (in words)” value in data set [2] was “only superior to celecoxib”.
